pIC50: −log10 of the molar value.
Experiments:
Assay type in all cases: cell-based
Target C CJ mRNA = test: Gene panel canonical junction qPCR splicing assay, Target C; settings: Table 4, read-out: Target C IC50 (decrease in CJ mRNA levels)
Method: (§1) Compounds described herein were used to modulate RNA transcript abundance in cells. The expression of a target mRNA was measured by detecting the formation of an exon-exon junction in the canonical transcript (CJ). A compound mediated exon-inclusion event was detected by observing an increase in formation of a new junction with an alternative exon (AJ). Real-time qPCR assays were used to detect these splicing switches and interrogate the potency of various compounds towards different target genes. A high-throughput real time quantitative PCR (RT-qPCR) assay was developed to measure these two isoforms of the mRNA (CJ and AJ) for an exemplary gene, HTT, together with a control housekeeping gene, GAPDH or GUSB or PPIA, used for normalization. Briefly, the A673 or K562 cell line was treated with various compounds described herein (e.g., compounds of Formula (I) or (II)). After treatment, the levels of the HTT mRNA targets were determined from each sample of cell lysate by cDNA synthesis followed by qPCR. The data analysis was performed by first determining the ΔCt vs the housekeeper gene. This ΔCt was then normalized against the DMSO control (ΔΔCt) and converted to RQ (relative quantification) using the 2^(−ΔΔCt) equation. The RQ were then converted to a percentage response by arbitrarily setting an assay window of 3.5 ΔCt for HTT-CJ and an assay window of 9 ΔCt for HTT-AJ. […] The percentage response was then fitted to the 4 parametric logistic equation to evaluate the concentration dependence of compound treatment. The increase in AJ mRNA is reported as AC50 (compound concentration having 50% response in AJ increase) while the decrease in CJ mRNA levels is reported as IC50 (compound concentration having 50% response in CJ decrease). Additional studies were carried out for a larger panel of genes using the protocol provided above. The junction between flanking upstream and downstream exons was used to design canonical junction qPCR assays. At least one of the forward primer, reverse primer or the CY5-labeled 5′ nuclease probe (with 3′ quencher such as ZEN/Iowa Black FQ) was designed to overlap with the exon junction to capture the CJ mRNA transcript. BLAST was used to confirm the specificity of the probeset and parameters such as melting temperature, GC content, amplicon size, and primer dimer formation are considered during their design. Data for the decrease in CJ mRNA levels for three exemplary genes (HTT, SMN2, and Target C) analyzed in this panel are reported as IC50 (compound concentration having 50% response in CJ decrease).

HTT mRNA = test: Splicing assay (RT-qPCR) of HTT mRNA alternative junction (AJ) and canonical junction (CJ); settings: A673 or K562 cells, 24 hours; for pIC50: decrease in CJ mRNA, read-out: HTT CJ IC50; for AC50: increase in AJ mRNA, read-out: HTT AJ AC50
Method: Compounds described herein were used to modulate RNA transcript abundance in cells. The expression of a target mRNA was measured by detecting the formation of an exon-exon junction in the canonical transcript (CJ). A compound mediated exon-inclusion event was detected by observing an increase in formation of a new junction with an alternative exon (AJ). Real-time qPCR assays were used to detect these splicing switches and interrogate the potency of various compounds towards different target genes. A high-throughput real time quantitative PCR (RT-qPCR) assay was developed to measure these two isoforms of the mRNA (CJ and AJ) for an exemplary gene, HTT, together with a control housekeeping gene, GAPDH or GUSB or PPIA, used for normalization. Briefly, the A673 or K562 cell line was treated with various compounds described herein (e.g., compounds of Formula (I) or (II)). After treatment, the levels of the HTT mRNA targets were determined from each sample of cell lysate by cDNA synthesis followed by qPCR.
Materials: • Cells-to-CT 1-step kit: ThermoFisher A25602, Cells-to-CT lysis reagent: ThermoFisher 4391851C, TagMan™ Fast Virus 1-Step Master Mix: ThermoFisher 4444436 • GAPDH: VIC-PL, ThermoFisher 4326317E (Assay: Hs99999905_ml)—used for K562/suspension cell lines • GUSB: VIC-PL, ThermoFisher 4326320E (Assay: Hs99999908 ml)—used for K562/suspension cell lines • PPIA: VIC-PL, ThermoFisher 4326316E (Assay: Hs99999904 ml)—used for A673/adherent cell lines
The A673 cell line was cultured in DMEM with 10% FBS. Cells were diluted with full growth media and plated in a 96-well plate (15,000 cells in 100 ul media per well). The plate was incubated at 37° C. with 5% CO2 for 24 hours to allow cells to adhere. An 11-point 3-fold serial dilution of the compounds was made in DMSO then diluted in media in an intermediate plate. Compounds were transferred from the intermediate plate to the cell plate with the top dose at a final concentration of 10 uM in the well. Final DMSO concentration was kept at or below 0.25%. The cell plate was returned to the incubator at 37° C. with 5% CO2 for an additional 24 hours.
The K562 cell line was cultured in IMDM with 10% FBS. For K562, cells were diluted with full growth media and plated in either a 96-well plate (50,000 cells in 50 uL media per well) or a 384-well plate (8,000-40,000 cells in 45 uL media per well). An 11-point 3-fold serial dilution of the compounds were made in DMSO then diluted in media in an intermediate plate. Compound was transferred from the intermediate plate to the cell plate with the top dose at a final concentration of 10 uM in the well. Final DMSO concentration was kept at or below 0.25%. Final volume was 100 uL for 96-well plate and 50 uL for 384-well plate. The cell plate was then placed in an incubator at 37° C. with 5% CO2 for 24 hours.
The cells were then gently washed with 50 uL-100 uL cold PBS before proceeding to addition of lysis buffer. 30 uL-50 uL of room temperature lysis buffer with DNAse I (and optionally RNAsin) was added to each well. Cells were shaken/mixed thoroughly at room temperature for 5-10 minutes for lysis to take place and then 3 uL-5 uL of room temperature stop solution was added and wells were shaken/mixed again. After 2-5 minutes, the cell lysate plate was transferred to ice for RT-qPCR reaction setup. The lysates could also be frozen at −80° C. for later use.
In some cases, a direct lysis buffer was used. An appropriate volume of 3X lysis buffer (10 mM Tris, 150 mM NaCl, 1.5%-2.5% Igepal and 0.1-1 U/uL RNAsin, pH 7.4) was directly added to either K562 or A673 cells in media and mixed by pipetting 3 times. The plates were then incubated at room temperature with shaking/rocking for 20-50 minutes to allow for lysis to take place. After this time, the cell lysate plate was transferred to ice to set up for the RT-qPCR reactions. The lysates could also be frozen at −80° C. for later use. […]

SMN2 CJ mRNA = test: Gene panel canonical junction qPCR splicing assay, SMN2; settings: Table 4, read-out: SMN2 IC50 (decrease in CJ mRNA levels)
Method: as §1

HTT CJ mRNA = test: Gene panel canonical junction qPCR splicing assay, HTT; settings: Table 4, read-out: HTT IC50 (decrease in CJ mRNA levels)
Method: as §1

Structure (SMILES)	pIC50 (Target C CJ mRNA)	pIC50 (HTT mRNA)	pIC50 (SMN2 CJ mRNA)	pIC50 (HTT CJ mRNA)	AC50 (HTT mRNA) [nM]
Cn1cc2cc(-c3ccc4nc(N5CCNC(C)(C)C5)ccc4n3)c(O)cc2n1 [Compound 120, 5-[6-(3,3-dimethylpiperazin-1-yl)-1,5-naphthyridin-2-yl]-2-methylindazol-6-ol]	5.00 to 6.00	5.00 to 6.00	> 7.00	5.00 to 6.00	1000 to 10000
Cn1cc2cc(-c3ccc4cc(C5CCNCC5)ccc4n3)c(O)c(F)c2n1 [Compound 241, 7-fluoro-2-methyl-5-[6-(piperidin-4-yl)quinolin-2-yl]indazol-6-ol]	> 7.00	> 7.00	> 7.00	> 7.00	< 100
Cn1cc2cc(-c3ccc4nc(C5CCNCC5)ccc4n3)cc(F)c2n1 [Compound 185, 2-(7-fluoro-2-methylindazol-5-yl)-6-(piperidin-4-yl)-1,5-naphthyridine]	5.00 to 6.00	5.00 to 6.00	6.00 to 7.00	5.00 to 6.00	1000 to 10000
Cn1cc2c(O)c(-c3cc4ccc(C5CCNCC5)nc4cn3)ccc2n1 [Compound 106, 2-methyl-5-[2-(piperidin-4-yl)-1,7-naphthyridin-6-yl]indazol-4-ol]	5.00 to 6.00	5.00 to 6.00	6.00 to 7.00	5.00 to 6.00	1000 to 10000
Cn1cc2cc(-c3ccc4nc(N5CC[C@H](N[C@H]6C[C@H](F)C6)C5)ccc4n3)c(O)cc2n1 [Compound 247]	6.00 to 7.00	> 7.00	> 7.00	> 7.00	100 to 1000
Cn1cc2cc(-c3ccc4nc(N5CCC6(CCN6)C5)ccc4n3)c(O)cc2n1 (stereo not drawn) [Compound 178, 5-(6-{1,6-diazaspiro[3.4]octan-6-yl}-1,5-naphthyridin-2-yl)-2-methylindazol-6-ol]	5.00 to 6.00	6.00 to 7.00	> 7.00	6.00 to 7.00	100 to 1000
Cc1cn2nc(-c3ccc4nc(N5CCC(NC(C)(C)C)C5)ccc4n3)cc2c(C)n1 (stereo not drawn) [Compound 187]	> 7.00	> 7.00	> 7.00	> 7.00	< 100

Further lines, with some results ahead:

pIC50 (Target C CJ mRNA)	pIC50 (HTT mRNA)	pIC50 (SMN2 CJ mRNA)	pIC50 (HTT CJ mRNA)	Structure (SMILES)	AC50 (HTT mRNA) [nM]
> 7.00	> 7.00	> 7.00	> 7.00	Cc1c(O)c(-c2ccc3nc(N4CC[C@H](NC5(C)CC5)C4)ccc3n2)cc2cn(C)nc12 (single isomer, unassigned) [Compound 226, 2,7-dimethyl-5-{6-[(35)-3-[(1-methylcyclopropyl)amino]pyrrolidin-1-yl]-1,5-naphthyridin-2-yl}indazol-6-ol]	< 100
> 7.00	> 7.00	> 7.00	> 7.00	Cc1cn2nc(-c3ccc4nc(N5CCC(NC(C)(C)C)C5)ccc4n3)c(O)c2c(C)n1 (stereo not drawn) [Compound 203, 2-{6-[3-(tert-butylamino)pyrrolidin-1-yl]-1,5-naphthyridin-2-yl}-4,6-dimethylpyrazolo[1,5-a]pyrazin-3-ol]	< 100
5.00 to 6.00	5.00 to 6.00	5.00 to 6.00	5.00 to 6.00	Cn1cc2cc(-c3ccc4nc(N5CC(NC(C)(C)C)C5)ccc4n3)c(O)cc2n1 [Compound 165]	1000 to 10000
> 7.00	> 7.00	> 7.00	> 7.00	Cc1c(O)c(-c2ccc3nc(N4CC[C@@H](NC5CC5)C4)ccc3n2)cc2cn(C)nc12 (single isomer, unassigned) [Compound 259]	< 100
< 5.00	< 5.00	5.00 to 6.00	< 5.00	Cn1cc2cc(-c3ccc4nc(N5CC[C@@H](NCC(F)(F)F)C5)ccc4n3)c(O)cc2n1 (stereo in doubt) [Compound 245]	> 10000
< 5.00	< 5.00	< 5.00	< 5.00	O=C(Nc1cn[nH]c1)Nc1cc2nc(N3CCNCC3)ccc2cn1 [Compound 111, 1-[2-(piperazin-1-yl)-1,6-naphthyridin-7-yl]-3-(1H-pyrazol-4-yl)urea]	> 10000
> 7.00	> 7.00	> 7.00	> 7.00	Cn1cc2cc(-c3ccc4nc(N5CC[C@@H](NC6(C)CC6)C5)ccc4n3)c(O)cc2n1 (single isomer, unassigned) [Compound 220]	< 100
< 5.00	< 5.00	< 5.00	< 5.00	CN1CCCC2(CCN2c2ccc3nc(-c4cc5cn(C)nc5cc4O)ccc3n2)C1 (stereo not drawn) [Compound 192, 2-methyl-5-(6-{6-methyl-1,6-diazaspiro[3.5]nonan-1-yl}-1,5-naphthyridin-2-yl) indazol-6-ol]	> 10000
< 5.00	< 5.00	< 5.00	< 5.00	Cn1cnc2cc(-c3ccc4nc(N5CCC(NC(C)(C)C)C5)ccc4n3)c(O)cc2c1=O (stereo not drawn) [Compound 167, 7-{6-[3-(tert-butylamino)pyrrolidin-1-yl]-1,5-naphthyridin-2-yl}-6-hydroxy-3-methylquinazolin-4-one]	> 10000
> 7.00		< 5.00	< 5.00	CN(C(=O)Nc1cn[nH]c1)c1cc2nc(N3CCNCC3)ccc2cn1 [Compound 110, 1-methyl-1-[2-(piperazin-1-yl)-1,6-naphthyridin-7-yl]-3-(1H-pyrazol-4-yl)urea]	> 10000

Reference: patent US20240002375A1, “2-(INDAZOL-5-YL)-6-(PIPERIDIN-4-YL)-1,7-NAPHTHYRIDINE DERIVATIVES AND RELATED COMPOUNDS AS MODULATORS FOR SPLICING NUCLEIC ACIDS AND FOR THE TRE” (REMIX THERAPEUTICS INC., priority 2020, published 2024)
